According to patent US12427138B2, “Treatment of Meniere's disease” (SOUND PHARMACEUTICALS INCORPORATED, priority 2016, dated 2025):
“Also recorded” adds a separate entry of the source.

What was measured:
[1] = Noguchi et al., 1992; 1994; cited from earlier work
[2] = test system: adults with Meniere's disease; experiment: Phase 1b clinical study: pure-tone audiometry (PTA), low frequency hearing; assay type: in vivo, human
Method: (§1) The general approach for the investigation of the safety and efficacy of SPI-1005 for Meniere's disease is conducting this phase lb, safety, pharmacokinetic and pharmacodynamic study in 40 adults with Meniere's disease. The study is evaluating escalating doses of SPI-1005 at 200, 400 or 600 mg po BID versus placebo for twenty-one days for impact on pure-tone audiometry, speech discrimination, electrocochleography, and patient-reported outcomes using validated questionnaires for assessing vertigo and tinnitus (Hornibrook, et al., 2012; Meikle, et al., 2011; Yardley, et al., 2004). This study is ongoing and being conducted in compliance with the protocol, Good Clinical Practice (GCP) and the applicable regulatory requirements.
(§2) The effect of SPI-1005 on hearing and vertigo was evaluated at baseline, at the end of 21 days of treatment and 28 days after completing treatment. Tinnitus was evaluated at baseline, weekly during treatment, and 7 and 28 days after treatment. Hearing was evaluated using pure-tone audiometric testing at 0.25, 0.5, 1, 2, 3, 4, 6, and 8 kHz, and speech discrimination using the WINT at 24, 20, 16, 12, 8, 4, and 0 Signal-to-Noise ratio (SNR). The severity of vertigo was assessed using the VSS. The severity of tinnitus was assessed using the TFI. In addition, ECochG was conducted at baseline, at the end of treatment and 28 days after completing treatment in order to measure the pharmacodynamic response.
(§3) Audiological evaluations were performed at specified intervals to evaluate the efficacy of SPI-1005. […] These were scored by study personnel. […]
(§4) Audiometric data were collected in the form of categorical and continuous variables. Categorical data were analyzed using the chi-square distribution. Continuous data were analyzed using mixed-effects multiple-repeated measures, and post-hoc analysis, when necessary, was adjusted using Bonferroni applications. Non-parametric tests included the Mann-Whitney U. Calculated p-values were considered statistically significant at or below an alpha value of 0.05. […]

[3] = test system: adults with Meniere's disease; experiment: Phase 1b clinical study: Tinnitus Loudness (TL) visual analogue scale; assay type: in vivo, human
Method: as §1
Multiple clinical assessments and analysis of auditory and vestibular function • Pure tone audiometry and word recognition scores: Baseline, 21d tx, and 28d post-tx • Hearing loss is typically unilateral and low frequency (0.25, 0.5 and 1 kHz) • Significant hearing improvement ≥10 dB reduction from baseline • Words in noise tests (WINT) 35 words under 7 different SNRs to each ear (0-35) • Significant WINT improvement ≥10% increase from baseline • Tinnitus Functional Index (TFI) : Baseline, and 7d, 14d and 21d tx, and 7d and 28d post-tx • 25 questions answered by patient regarding their tinnitus severity (0-100) • Significant TFI improvement ≥10 pt reduction from baseline • Tinnitus Loudness (TL) answered by patient on a visual analogue scale (0-10) • Significant TL improvement ≥2 pt reduction from baseline • Vertigo Symptom Scale (VSS): Baseline, 21d tx, and 28d post-tx • 15 questions answered by patient regarding their vertigo severity (0-60) • Significant VSS improvement ≥6 pt reduction from baseline

[4] = test system: adults with Meniere's disease; experiment: Phase 1b clinical study: Vertigo Symptom Scale (VSS); assay type: in vivo, human
Method: as §1, with “This study is ongoing and being conducted in compliance with the protocol, Good Clinical Practice (GCP) and the applicable regulatory requirements.” left out
as §2, with “In addition, ECochG was conducted at baseline, at the end of treatment and 28 days after completing treatment in order to measure the pharmacodynamic response.” left out
as §3

[5] = test system: adults with Meniere's disease; experiment: Phase 1b clinical study: speech discrimination, Words-in-Noise Test (WINT) / word recognition scores; assay type: in vivo, human
Method: as §1, §2, §3, §4

[6] = test system: adults with Meniere's disease; experiment: Phase 1b clinical study: Tinnitus Functional Index (TFI); assay type: in vivo, human
Method: as §1, with “This study is ongoing and being conducted in compliance with the protocol, Good Clinical Practice (GCP) and the applicable regulatory requirements.” left out
as §2, with “In addition, ECochG was conducted at baseline, at the end of treatment and 28 days after completing treatment in order to measure the pharmacodynamic response.” left out
as §3

[7] = test system: adults with Meniere's disease; experiment: Phase 1b clinical study: initial analysis of efficacy, secondary endpoints versus placebo; assay type: in vivo, human; settings: two analyzed cohorts
Method: as §1, with “requirements. […]” for “requirements.”
Study participants were been randomized to SPI-1005 or placebo in this double-blind, dose-escalation study to evaluate its safety and preliminary efficacy. Patients, aged 19-70 years, with probable or definite Meniere's disease have undergone baseline testing to have their severity of sensorineural hearing loss, tinnitus and vertigo determined before the start of study treatment (see Table 3: Schedule of Assessments). […]

[8] = test system: cochlea following noise- or ototoxin-induced injury; settings: preclinical animal studies; cited from earlier work
[9] = test system: adults with Meniere's disease; experiment: Phase 1b clinical study: safety and tolerability of SPI-1005; assay type: in vivo, human; settings: first two cohorts (26 of 40 subjects); for safety and tolerability: oral dosing BID for 21 days
Method: as §1
The safety and tolerability of SPI-1005 is being determined by examining the toxicities and adverse events that are attributable to treatment. […]
Before, during, and for 28 days after administration of SPI-1005, patients were evaluated for safety by history, physical examination, vital signs and blood tests (complete blood count [CBC], Chemistry-20 [Chem-20]). Peak and trough plasma levels of ebselen and its major metabolite were determined using liquid chromatography-mass spectrometry (LCMS) at certain time points. Additionally, plasma was analyzed by High Performance Liquid Chromatography-Inductively Coupled Plasma-Mass Spectrometry (HPLC-ICP-MS) for total selenium at the corresponding time points. Patients were monitored for adverse events at each clinic visit. Female patients received pregnancy testing, and those found to be pregnant were excluded or discontinued from the study and monitored for adverse events. […]
History and physical examinations, vital signs and analysis of lab reports were performed to evaluate the safety of SPI-1005. […] Blood test results were analyzed according to currently established laboratory norms. […]
Blood testing was performed at specified intervals to evaluate the safety of SPI-1005. […] Blood was collected and shipped to a designated CRO(s) to quantify ebselen, ebselen metabolite, and total selenium. […]

[10] = test system: cytochrome-C release from mitochondria; settings: during lipid peroxidation; Namura et al., 2001; cited from earlier work
[11] = 25° Celsius; cited from earlier work

## O=c1c2ccccc2[se]n1-c1ccccc1 [ebselen, 2-phenyl-1,2-benzisoselenazol-3(2H)-one]
[1]
  activity against peroxynitrite: strong activity against peroxynitrite
[2]; PTA, oral dosing 21 days, first two cohorts
  highest improvement in low frequency (0.25, 0.5, and 1 kHz) hearing: ≤ 35 dB
[2]; first two cohorts
  PTA improvement, actives vs placebos: significant and specific to actives vs placebos
[2]; ≥10 dB reduction from baseline, no significant improvement in placebos
  share of actives with significant hearing improvement ≥10 dB: 60%
[3]; human, in vivo
  TL improvement, actives vs placebo: greater in actives than placebo
[3]; placebo 33%
  share of actives with significant TL improvement ≥2 pt reduction: 70%
[3]; scale 0-10
  highest improvement in tinnitus loudness (reduction): ≤ 8 pt
[4]; human, in vivo
  VSS improvement, actives vs placebo: greater in actives than placebo
[4]; placebo 33%
  share of actives with significant VSS improvement ≥6 pt reduction: 55%
[5]; first two cohorts
  WINT improvement, actives vs placebos: significant and specific to actives vs placebos
[5]; word recognition scores, oral dosing 21 days
  highest improvement over baseline WRS: ≤ 120%
[5]; ≥10% increase from baseline, no significant improvement in placebos
  share of actives with significant WINT improvement ≥10% increase: 35%
[6]; placebo 50%
  share of actives with significant TFI improvement ≥10 pt reduction: 40%
[6]; scale 0-100
  highest improvement in TFI score (reduction): ≤ 62 pt
[7]
  clinical efficacy (hearing, tinnitus, vertigo) versus placebo: achieved several secondary endpoints versus placebo; also recorded: good clinical efficacy
[7]; listed as Ebselen
  clinical efficacy (hearing, tinnitus, vertigo) versus placebo: clinically relevant improvements in hearing, tinnitus and vertigo
[8]
  effect on pathologic changes in the cochlea: prevent or reverse the pathologic changes in the cochlea
[9]
  drug-related adverse events: no drug-related adverse events have occurred
  safety and tolerability: safe and well tolerated
[9]; listed as SPI-1005
  safety and tolerability: well tolerated with no adverse events due to study drug
[10]
  effect on cytochrome-C release from mitochondria and nuclear damage: reduces cytochrome-C release from mitochondria and nuclear damage
[11]
  solubility in aqueous solutions: slightly soluble
